{"source": "the kinase profiling compilation of Christmann-Franck et al. (2016)", "test_in_all_cases": "KINOMEscan competition binding", "conditions_in_all_cases": "compound 0.1 µM", "key": {"LIMK2 (human)": {"target": "LIMK2 (human) (UniProt P53671)"}, "EPHA1 (human)": {"target": "EPHA1 (human) (UniProt P21709)", "sequence (P21709 whole entry, looked up)": "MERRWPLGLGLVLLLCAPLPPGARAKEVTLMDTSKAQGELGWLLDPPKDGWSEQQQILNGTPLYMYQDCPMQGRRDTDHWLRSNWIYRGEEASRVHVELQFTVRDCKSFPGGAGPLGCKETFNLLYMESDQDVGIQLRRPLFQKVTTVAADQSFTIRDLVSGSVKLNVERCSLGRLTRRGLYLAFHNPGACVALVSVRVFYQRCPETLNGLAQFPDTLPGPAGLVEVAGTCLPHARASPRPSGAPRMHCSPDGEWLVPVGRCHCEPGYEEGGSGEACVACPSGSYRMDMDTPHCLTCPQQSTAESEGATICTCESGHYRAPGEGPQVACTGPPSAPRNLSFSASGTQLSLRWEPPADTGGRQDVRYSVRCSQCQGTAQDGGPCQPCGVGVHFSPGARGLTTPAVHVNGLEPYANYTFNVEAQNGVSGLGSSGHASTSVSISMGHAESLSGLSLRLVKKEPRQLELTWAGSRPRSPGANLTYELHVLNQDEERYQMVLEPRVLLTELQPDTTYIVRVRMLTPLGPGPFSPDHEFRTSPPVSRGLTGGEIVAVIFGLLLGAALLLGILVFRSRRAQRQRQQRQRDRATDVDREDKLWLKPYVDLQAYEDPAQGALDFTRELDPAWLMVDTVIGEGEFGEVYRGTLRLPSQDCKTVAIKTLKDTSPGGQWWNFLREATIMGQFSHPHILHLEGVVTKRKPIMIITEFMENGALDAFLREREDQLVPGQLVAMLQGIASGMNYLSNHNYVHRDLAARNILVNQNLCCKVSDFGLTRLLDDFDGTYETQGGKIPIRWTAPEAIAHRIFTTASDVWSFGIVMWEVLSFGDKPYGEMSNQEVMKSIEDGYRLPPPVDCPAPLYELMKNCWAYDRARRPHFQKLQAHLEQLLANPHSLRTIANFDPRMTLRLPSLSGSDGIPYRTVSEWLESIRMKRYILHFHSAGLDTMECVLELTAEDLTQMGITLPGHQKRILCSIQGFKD"}, "ROCK2 (human)": {"target": "ROCK2 (human) (UniProt O75116)"}, "[1]": {"test_system": "ABL1 (human), P00519 [F317I]"}, "[2]": {"test_system": "KIT (human), P10721 [V559D]"}, "PKN1 (human)": {"target": "PKN1 (human) (UniProt Q16512)"}, "STK36 (human)": {"target": "STK36 (human) (UniProt Q9NRP7)", "sequence (Q9NRP7 whole entry, looked up)": "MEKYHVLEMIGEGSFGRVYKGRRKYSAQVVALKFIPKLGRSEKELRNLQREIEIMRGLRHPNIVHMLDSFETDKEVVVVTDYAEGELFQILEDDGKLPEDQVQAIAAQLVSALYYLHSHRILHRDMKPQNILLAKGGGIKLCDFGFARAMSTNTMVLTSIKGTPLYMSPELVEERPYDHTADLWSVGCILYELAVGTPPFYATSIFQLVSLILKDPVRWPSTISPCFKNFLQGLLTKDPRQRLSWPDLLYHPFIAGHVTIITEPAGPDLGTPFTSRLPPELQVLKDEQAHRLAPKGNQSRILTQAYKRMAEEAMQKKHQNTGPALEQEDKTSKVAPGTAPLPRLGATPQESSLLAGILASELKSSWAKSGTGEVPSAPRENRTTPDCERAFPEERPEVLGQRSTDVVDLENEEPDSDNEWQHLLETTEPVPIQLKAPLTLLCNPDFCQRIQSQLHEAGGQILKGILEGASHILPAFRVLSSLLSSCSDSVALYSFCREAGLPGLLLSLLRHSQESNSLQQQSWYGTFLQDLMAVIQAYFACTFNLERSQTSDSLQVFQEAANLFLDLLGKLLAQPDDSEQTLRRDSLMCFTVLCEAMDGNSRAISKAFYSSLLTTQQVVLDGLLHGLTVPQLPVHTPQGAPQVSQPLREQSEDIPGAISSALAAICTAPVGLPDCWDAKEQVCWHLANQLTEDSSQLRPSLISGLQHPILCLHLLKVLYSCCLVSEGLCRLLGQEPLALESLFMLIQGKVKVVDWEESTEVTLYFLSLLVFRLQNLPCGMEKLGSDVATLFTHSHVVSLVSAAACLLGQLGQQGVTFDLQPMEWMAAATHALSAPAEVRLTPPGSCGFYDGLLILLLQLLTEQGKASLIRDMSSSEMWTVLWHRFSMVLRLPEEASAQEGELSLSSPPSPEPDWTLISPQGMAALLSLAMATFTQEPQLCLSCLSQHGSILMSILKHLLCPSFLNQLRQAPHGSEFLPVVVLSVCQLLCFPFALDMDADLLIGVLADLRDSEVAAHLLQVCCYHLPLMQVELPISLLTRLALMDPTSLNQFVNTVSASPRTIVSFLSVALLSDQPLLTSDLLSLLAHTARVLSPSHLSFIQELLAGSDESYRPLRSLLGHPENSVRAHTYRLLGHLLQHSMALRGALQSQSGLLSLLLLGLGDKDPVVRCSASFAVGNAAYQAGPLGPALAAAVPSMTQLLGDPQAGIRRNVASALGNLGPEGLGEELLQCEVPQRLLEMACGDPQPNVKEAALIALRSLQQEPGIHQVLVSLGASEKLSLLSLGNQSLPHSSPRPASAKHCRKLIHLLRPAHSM"}, "EPHB3 (human)": {"target": "EPHB3 (human) (UniProt P54753)"}, "ERBB2 (human)": {"target": "ERBB2 (human) (UniProt P04626)", "sequence (P04626 whole entry, looked up)": "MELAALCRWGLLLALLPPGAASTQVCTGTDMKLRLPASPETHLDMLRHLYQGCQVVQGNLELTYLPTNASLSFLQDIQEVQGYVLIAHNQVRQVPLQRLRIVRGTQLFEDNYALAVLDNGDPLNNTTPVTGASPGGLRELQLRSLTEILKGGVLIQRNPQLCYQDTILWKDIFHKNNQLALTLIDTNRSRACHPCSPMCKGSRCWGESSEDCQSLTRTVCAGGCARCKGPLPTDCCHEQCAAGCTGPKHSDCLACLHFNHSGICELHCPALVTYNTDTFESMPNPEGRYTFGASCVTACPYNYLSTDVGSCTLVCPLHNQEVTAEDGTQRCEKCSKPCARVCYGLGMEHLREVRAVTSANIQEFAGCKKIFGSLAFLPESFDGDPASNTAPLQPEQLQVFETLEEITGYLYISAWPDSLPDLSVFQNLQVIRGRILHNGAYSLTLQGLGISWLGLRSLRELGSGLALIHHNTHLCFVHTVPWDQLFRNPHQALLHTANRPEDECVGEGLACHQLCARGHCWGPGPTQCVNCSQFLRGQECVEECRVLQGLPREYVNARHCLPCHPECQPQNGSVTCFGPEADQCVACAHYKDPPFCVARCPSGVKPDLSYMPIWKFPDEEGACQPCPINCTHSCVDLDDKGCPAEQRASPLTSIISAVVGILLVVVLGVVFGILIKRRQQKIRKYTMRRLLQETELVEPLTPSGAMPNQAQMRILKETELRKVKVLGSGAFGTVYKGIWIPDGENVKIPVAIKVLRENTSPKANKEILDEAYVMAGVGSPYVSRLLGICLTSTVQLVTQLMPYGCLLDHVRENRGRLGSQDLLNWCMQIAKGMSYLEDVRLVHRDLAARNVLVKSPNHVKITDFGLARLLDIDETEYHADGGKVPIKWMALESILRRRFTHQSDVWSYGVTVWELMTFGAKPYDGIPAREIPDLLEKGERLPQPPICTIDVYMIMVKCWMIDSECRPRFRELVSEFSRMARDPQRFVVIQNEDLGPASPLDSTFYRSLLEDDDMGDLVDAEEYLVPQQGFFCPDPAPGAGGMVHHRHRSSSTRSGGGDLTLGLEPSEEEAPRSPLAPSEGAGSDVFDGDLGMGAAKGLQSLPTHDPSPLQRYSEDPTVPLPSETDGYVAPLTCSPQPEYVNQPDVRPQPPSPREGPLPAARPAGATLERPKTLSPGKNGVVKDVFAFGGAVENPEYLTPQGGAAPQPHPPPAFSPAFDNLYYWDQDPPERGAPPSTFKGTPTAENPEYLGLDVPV"}, "[3]": {"target": "JAK1 JH2 pseudokinase (human) (UniProt P23458)"}, "ICK (human)": {"target": "ICK (human) (UniProt Q9UPZ9)"}, "PHKG1 (human)": {"target": "PHKG1 (human) (UniProt Q16816)", "sequence (Q16816 whole entry, looked up)": "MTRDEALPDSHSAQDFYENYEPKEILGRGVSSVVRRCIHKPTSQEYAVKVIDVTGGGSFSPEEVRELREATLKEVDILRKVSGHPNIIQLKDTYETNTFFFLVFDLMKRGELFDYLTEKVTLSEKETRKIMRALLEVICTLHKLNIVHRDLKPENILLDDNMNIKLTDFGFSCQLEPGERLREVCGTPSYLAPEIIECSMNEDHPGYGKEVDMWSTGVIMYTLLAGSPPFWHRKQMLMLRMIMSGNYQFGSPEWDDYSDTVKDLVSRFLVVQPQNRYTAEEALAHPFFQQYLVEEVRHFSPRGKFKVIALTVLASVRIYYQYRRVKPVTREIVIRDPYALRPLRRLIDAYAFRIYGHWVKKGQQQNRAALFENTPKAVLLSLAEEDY"}, "EGFR (human)": {"target": "EGFR (human) (UniProt P00533)"}, "BMX (human)": {"target": "BMX (human) (UniProt P51813)"}, "CDC42BPG (human)": {"target": "CDC42BPG (human) (UniProt Q6DT37)"}, "[4]": {"test_system": "PIK3CA (human), P42336 [C420R]"}, "CDK4 CCND1 (human)": {"target": "CDK4 CCND1 (human) (UniProt P11802+P24385)"}, "STK38L (human)": {"target": "STK38L (human) (UniProt Q9Y2H1)"}, "LATS1 (human)": {"target": "LATS1 (human) (UniProt O95835)"}, "ACVR1B (human)": {"target": "ACVR1B (human) (UniProt P36896)"}, "[5]": {"test_system": "PIK3CA (human), P42336 [E545A]"}, "MATK (human)": {"target": "MATK (human) (UniProt P42679)"}, "[6]": {"test_system": "EGFR (human), P00533 [T790M]"}, "MAP2K1 (human)": {"target": "MAP2K1 (human) (UniProt Q02750)", "sequence (Q02750 whole entry, looked up)": "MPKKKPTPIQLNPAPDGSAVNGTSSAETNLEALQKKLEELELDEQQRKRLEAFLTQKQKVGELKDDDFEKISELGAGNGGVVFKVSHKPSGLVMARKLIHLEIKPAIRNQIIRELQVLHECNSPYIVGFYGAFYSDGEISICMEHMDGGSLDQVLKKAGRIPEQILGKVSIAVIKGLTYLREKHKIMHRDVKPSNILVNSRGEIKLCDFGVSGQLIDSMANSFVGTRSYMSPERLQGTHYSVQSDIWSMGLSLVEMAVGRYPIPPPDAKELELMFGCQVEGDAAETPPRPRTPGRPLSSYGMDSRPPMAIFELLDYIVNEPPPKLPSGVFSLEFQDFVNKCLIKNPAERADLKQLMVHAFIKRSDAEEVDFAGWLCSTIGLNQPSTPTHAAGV"}, "NTRK1 (human)": {"target": "NTRK1 (human) (UniProt P04629)"}, "PIM2 (human)": {"target": "PIM2 (human) (UniProt Q9P1W9)"}, "GRK7 (human)": {"target": "GRK7 (human) (UniProt Q8WTQ7)"}, "PKN2 (human)": {"target": "PKN2 (human) (UniProt Q16513)"}, "MINK1 (human)": {"target": "MINK1 (human) (UniProt Q8N4C8)"}, "[7]": {"test_system": "KIT (human), P10721 [V559D/V654A]"}, "[8]": {"test_system": "MET (human), P08581 [M1250T]"}, "MAPK10 (human)": {"target": "MAPK10 (human) (UniProt P53779)"}, "MAP2K3 (human)": {"target": "MAP2K3 (human) (UniProt P46734)"}, "[9]": {"test_system": "PIK3CA (human), P42336 [E542K]"}, "CHEK2 (human)": {"target": "CHEK2 (human) (UniProt O96017)"}, "TSSK1B (human)": {"target": "TSSK1B (human) (UniProt Q9BXA7)"}, "[10]": {"test_system": "PIK3CA (human), P42336 [M1043I]"}, "LATS2 (human)": {"target": "LATS2 (human) (UniProt Q9NRM7)"}, "FGR (human)": {"target": "FGR (human) (UniProt P09769)"}, "RPS6KA1 KD2 (human)": {"target": "RPS6KA1 KD2 (human) (UniProt Q15418)", "sequence (Q15418 whole entry, looked up)": "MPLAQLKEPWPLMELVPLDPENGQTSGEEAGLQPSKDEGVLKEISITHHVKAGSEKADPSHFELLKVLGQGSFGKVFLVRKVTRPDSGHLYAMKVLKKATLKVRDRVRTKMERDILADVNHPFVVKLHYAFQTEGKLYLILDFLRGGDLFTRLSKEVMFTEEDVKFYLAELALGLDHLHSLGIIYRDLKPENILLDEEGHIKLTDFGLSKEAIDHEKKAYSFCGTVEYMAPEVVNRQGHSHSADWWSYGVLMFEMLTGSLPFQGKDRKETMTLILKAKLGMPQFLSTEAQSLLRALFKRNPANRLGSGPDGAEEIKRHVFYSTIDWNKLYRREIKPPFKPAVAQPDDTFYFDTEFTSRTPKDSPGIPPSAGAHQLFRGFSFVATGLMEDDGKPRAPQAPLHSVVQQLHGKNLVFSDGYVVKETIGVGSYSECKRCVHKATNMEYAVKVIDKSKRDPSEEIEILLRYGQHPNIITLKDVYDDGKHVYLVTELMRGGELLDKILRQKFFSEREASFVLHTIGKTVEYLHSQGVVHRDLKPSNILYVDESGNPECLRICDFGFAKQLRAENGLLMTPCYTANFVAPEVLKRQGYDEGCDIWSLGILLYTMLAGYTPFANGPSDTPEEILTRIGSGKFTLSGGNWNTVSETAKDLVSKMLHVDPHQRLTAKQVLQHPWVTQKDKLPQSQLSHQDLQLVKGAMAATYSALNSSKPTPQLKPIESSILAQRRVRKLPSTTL"}}}
{"molecule": "CCc1ccc(C(=O)Nc2cc(CN3CCN(C)CC3)cc(C(F)(F)F)c2)cc1C#Cc1cnc2ccnn2c1", "values": [{"measurement": "kinase still bound, per cent of control", "setting": "LIMK2 (human)", "value": 100, "unit": "%"}, {"measurement": "kinase still bound, per cent of control", "setting": "EPHA1 (human)", "value": 86, "unit": "%"}, {"measurement": "kinase still bound, per cent of control", "setting": "ROCK2 (human)", "value": 100, "unit": "%"}, {"measurement": "kinase still bound, per cent of control", "setting": "[1]", "value": 83, "unit": "%"}, {"measurement": "kinase still bound, per cent of control", "setting": "[2]", "value": 24, "unit": "%"}, {"measurement": "kinase still bound, per cent of control", "setting": "PKN1 (human)", "value": 100, "unit": "%"}, {"measurement": "kinase still bound, per cent of control", "setting": "STK36 (human)", "value": 84, "unit": "%"}, {"measurement": "kinase still bound, per cent of control", "setting": "EPHB3 (human)", "value": 94, "unit": "%"}, {"measurement": "kinase still bound, per cent of control", "setting": "ERBB2 (human)", "value": 61, "unit": "%"}, {"measurement": "kinase still bound, per cent of control", "setting": "[3]", "value": 100, "unit": "%"}, {"measurement": "kinase still bound, per cent of control", "setting": "ICK (human)", "value": 100, "unit": "%"}, {"measurement": "kinase still bound, per cent of control", "setting": "PHKG1 (human)", "value": 85, "unit": "%"}, {"measurement": "kinase still bound, per cent of control", "setting": "EGFR (human)", "value": 100, "unit": "%"}, {"measurement": "kinase still bound, per cent of control", "setting": "BMX (human)", "value": 100, "unit": "%"}, {"measurement": "kinase still bound, per cent of control", "setting": "CDC42BPG (human)", "value": 100, "unit": "%"}, {"measurement": "kinase still bound, per cent of control", "setting": "[4]", "value": 100, "unit": "%"}, {"measurement": "kinase still bound, per cent of control", "setting": "CDK4 CCND1 (human)", "value": 100, "unit": "%"}, {"measurement": "kinase still bound, per cent of control", "setting": "STK38L (human)", "value": 100, "unit": "%"}, {"measurement": "kinase still bound, per cent of control", "setting": "LATS1 (human)", "value": 100, "unit": "%"}, {"measurement": "kinase still bound, per cent of control", "setting": "ACVR1B (human)", "value": 100, "unit": "%"}, {"measurement": "kinase still bound, per cent of control", "setting": "[5]", "value": 100, "unit": "%"}, {"measurement": "kinase still bound, per cent of control", "setting": "MATK (human)", "value": 100, "unit": "%"}, {"measurement": "kinase still bound, per cent of control", "setting": "[6]", "value": 100, "unit": "%"}, {"measurement": "kinase still bound, per cent of control", "setting": "MAP2K1 (human)", "value": 100, "unit": "%"}, {"measurement": "kinase still bound, per cent of control", "setting": "NTRK1 (human)", "value": 75, "unit": "%"}, {"measurement": "kinase still bound, per cent of control", "setting": "PIM2 (human)", "value": 96, "unit": "%"}, {"measurement": "kinase still bound, per cent of control", "setting": "GRK7 (human)", "value": 100, "unit": "%"}, {"measurement": "kinase still bound, per cent of control", "setting": "PKN2 (human)", "value": 74, "unit": "%"}, {"measurement": "kinase still bound, per cent of control", "setting": "MINK1 (human)", "value": 100, "unit": "%"}, {"measurement": "kinase still bound, per cent of control", "setting": "[7]", "value": 100, "unit": "%"}, {"measurement": "kinase still bound, per cent of control", "setting": "[8]", "value": 85, "unit": "%"}, {"measurement": "kinase still bound, per cent of control", "setting": "MAPK10 (human)", "value": 100, "unit": "%"}, {"measurement": "kinase still bound, per cent of control", "setting": "MAP2K3 (human)", "value": 100, "unit": "%"}, {"measurement": "kinase still bound, per cent of control", "setting": "[9]", "value": 100, "unit": "%"}, {"measurement": "kinase still bound, per cent of control", "setting": "CHEK2 (human)", "value": 100, "unit": "%"}, {"measurement": "kinase still bound, per cent of control", "setting": "TSSK1B (human)", "value": 95, "unit": "%"}, {"measurement": "kinase still bound, per cent of control", "setting": "[10]", "value": 100, "unit": "%"}, {"measurement": "kinase still bound, per cent of control", "setting": "LATS2 (human)", "value": 100, "unit": "%"}, {"measurement": "kinase still bound, per cent of control", "setting": "FGR (human)", "value": 59, "unit": "%"}, {"measurement": "kinase still bound, per cent of control", "setting": "RPS6KA1 KD2 (human)", "value": 100, "unit": "%"}]}
